Values belong to the molecule of their own block, whether it stands above or below them.
Experiments:
RON kinase = biological target: T1, RON kinase (Homo sapiens, UniProt Q04912); assay: RON kinase enzyme inhibitory activity, FRET (TR-FRET) technique; type: biochemical; details: 60 min reaction
T1 construct: purchased Carna Bioscience
Description: The enzyme inhibitory activity (IC50) of the thienopyridine derivative was measured using FRET (fluorescence resonance energy transfer) technique. RON kinase (Carna Bioscience) was diluted with a kinase assay buffer (50 mM HEPES pH 7.5, 1 mM EGTA, 10 mM MgCl2, 2 mM DTT, and 0.01% Tween-20) to a concentration of 2× (0.4 nM) the final reaction concentration and the dilution was added to a 384-well plate at 5 μL/well. As sample compounds, the compounds synthesized in the examples of the present invention and the compounds of the comparative examples were used. The sample compounds were respectively dissolved in 100% DMSO to obtain 1 mM stock solutions, which were then subjected to eight 10-fold serial dilutions. The sample compounds were diluted with the kinase assay buffer to a concentration of 4× the final reaction concentration, and the dilutions were added to the 384-well plate at 2.5 μL/well. The plate was incubated at room temperature for 15 minutes. Next, 0.25 M ATP solution (Sigma Aldrich) was diluted with the kinase reaction buffer to a concentration of 4× (60 μM) the final reaction concentration, and a tyrosine peptide substrate (Perkin-Elmer) was diluted therein to a concentration of 4× (400 nM) the final reaction concentration. The dilution was added to the 384-well plate at 2.5 μL/well. Then, the 384-well plate was incubated at room temperature and the reaction was allowed to proceed for 60 minutes. After 60 minutes, EDTA (Sigma Aldrich) was diluted with TR-FRET detection buffer (Perkin-Elmer) to a concentration of 4× (40 mM) the final reaction concentration. A europium-labeled anti-phosphotyrosine antibody (Perkin-Elmer) was diluted in the above EDTA dilution to a concentration of 4× (8 nM) the final reaction concentration to prepare a stop solution of the RON kinase reaction. The stop solution was added to the 384-well plate at 10 μL/well to terminate the reaction, and the plate was incubated at room temperature for 60 minutes. Thereafter, the plate was read on Victor X5 plate reader (Perkin-Elmer). At this time, the excitation wavelength was 340 nm and the emission wavelengths were 620 nm and 665 nm. The IC50 values of the sample compounds were determined using GraphPad Prism™ 5 by expressing the emission energy at 665 nm as a function of the sample compound concentration.

[1] = tested on: RON-activated KM12C colon cancer cell line; assay: Cell killing efficacy, trypan blue exclusion assay, KM12C; type: cell-based; details: 48 hours
Description: (§1) Two colon cancer cell lines, RON-activated KM12C (80015, KCLB, MEM+10% FBS) and RON-mutated (Δ160) HT-29 (30038, KCLB, RPMI+10% FBS) were prepared in 6-well plates at 5×10^4 cells/well, respectively. After 24 hours, while freshly changing the medium, the sample compounds were added to the wells at a concentration of 1 μM or 5 μM and the plates were allowed to stand for 48 hours.
(§2) As the sample compounds, the compounds synthesized in the examples of the present invention and the compounds of the comparative examples were used.
(§3) After 48 hours, the cell suspensions were collected and centrifuged (1,500 rpm, 4 min.) to obtain the cells, and live cells and dead cells were quantitated (n=2) through a trypan blue (15250-061, Gibco) exclusion assay. The statistical analysis was performed using Excel™ T-test from Microsoft.
(§4) The cell death rates of the compounds of Examples and Comparative Examples were respectively measured and the results are shown in Table 4 as relative ratios to Comparative Example 1.

[2] = tested on: RON-mutated (Δ160) HT-29 colon cancer cell line; assay: Cell killing efficacy, trypan blue exclusion assay, HT-29; type: cell-based; details: HT29 cell, 48 hours
Description: as §1, §2, §3, §4

KM12C cells = assay: Cytotoxicity MTS assay, KM12C; type: cell-based; details: Homo sapiens, 72 hours
Description: (§5) In order to confirm the specific cytotoxicity of the drugs, the cultured cells were treated with 0.05% trypsin/EDTA (0.5% trypsin EDTA (10×), Product No.: 15400-054, GIBCO) to detach them from the culture dish, and 3,000 cells (KM12C) or 2,000 cells (HT29, Colo 320 HSR) were dispensed into each well.
(§6) After 24 hours, sample compounds were dissolved in DMSO (Product No.: D8418-250ML, SIGMA) to make 10 mM stock solutions. As the sample compounds, the compounds synthesized in the examples of the present invention and the compounds of the comparative examples were used.
(§7) The cells were treated with the sample compound dilutions, and cultured in a 5% CO2 incubator at 37° C. for 72 hours.
(§8) Thereafter, 20 μL of MTS solution (CellTiter™ 96 Aqueous One Solution Cell Proliferation Assay, Product No.: G3581, Promega) was dispensed into each well and mixed well, and the cells were incubated for 1 to 4 hours at 37° C. in a 5% CO2 incubator.

HT29 cells = assay: Cytotoxicity MTS assay, HT29; type: cell-based; details: Homo sapiens, HT-29, 72 hours
Description: as §5, §6, §7, §8

T1 sequence (Q04912 25-1400): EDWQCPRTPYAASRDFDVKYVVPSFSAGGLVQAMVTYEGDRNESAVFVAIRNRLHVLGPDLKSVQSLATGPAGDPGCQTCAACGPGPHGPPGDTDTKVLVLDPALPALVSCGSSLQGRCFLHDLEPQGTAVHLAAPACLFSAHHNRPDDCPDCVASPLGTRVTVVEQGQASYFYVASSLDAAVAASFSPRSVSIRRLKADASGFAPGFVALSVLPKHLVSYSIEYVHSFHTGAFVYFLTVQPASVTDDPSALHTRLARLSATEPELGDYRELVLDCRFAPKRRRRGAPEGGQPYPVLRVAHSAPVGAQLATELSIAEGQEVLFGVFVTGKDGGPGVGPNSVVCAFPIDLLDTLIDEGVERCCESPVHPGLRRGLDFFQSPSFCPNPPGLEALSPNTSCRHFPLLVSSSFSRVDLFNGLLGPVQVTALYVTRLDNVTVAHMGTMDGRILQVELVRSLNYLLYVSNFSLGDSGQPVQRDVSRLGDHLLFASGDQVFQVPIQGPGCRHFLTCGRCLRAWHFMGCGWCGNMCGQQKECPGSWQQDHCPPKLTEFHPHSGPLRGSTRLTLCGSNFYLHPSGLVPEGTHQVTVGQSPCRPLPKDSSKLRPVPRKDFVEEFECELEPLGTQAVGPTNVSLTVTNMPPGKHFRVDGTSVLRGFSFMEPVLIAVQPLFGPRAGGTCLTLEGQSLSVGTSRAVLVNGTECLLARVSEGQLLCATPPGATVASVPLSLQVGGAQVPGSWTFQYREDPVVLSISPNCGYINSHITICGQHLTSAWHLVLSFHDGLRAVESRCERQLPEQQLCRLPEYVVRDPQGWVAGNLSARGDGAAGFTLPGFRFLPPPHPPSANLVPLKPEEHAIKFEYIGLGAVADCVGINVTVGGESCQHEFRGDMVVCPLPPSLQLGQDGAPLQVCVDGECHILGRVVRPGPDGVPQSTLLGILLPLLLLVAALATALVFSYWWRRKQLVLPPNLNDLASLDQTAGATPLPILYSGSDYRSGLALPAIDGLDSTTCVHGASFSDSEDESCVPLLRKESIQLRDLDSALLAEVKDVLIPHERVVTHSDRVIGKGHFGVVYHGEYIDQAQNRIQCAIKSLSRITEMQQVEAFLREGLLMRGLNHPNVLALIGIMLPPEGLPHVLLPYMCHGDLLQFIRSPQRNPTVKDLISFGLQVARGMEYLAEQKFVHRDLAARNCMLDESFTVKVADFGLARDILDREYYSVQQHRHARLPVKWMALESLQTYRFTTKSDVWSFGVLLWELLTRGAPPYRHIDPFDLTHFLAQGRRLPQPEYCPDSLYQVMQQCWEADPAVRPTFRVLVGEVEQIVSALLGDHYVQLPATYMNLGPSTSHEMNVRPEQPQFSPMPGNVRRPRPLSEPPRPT

IC50 (RON kinase): 3.74 nM
Compound: Cc1ccc(C(=O)Nc2ccc(Oc3cc4cnn(C)c4cc3-c3cn[nH]c3)c(F)c2)c(=O)n1-c1ccc(F)cc1 [Comp. Ex. 3, N-(3-fluoro-4-(1-methyl-6-(1H-pyrazol-4-yl)-1H-indazol-5-yloxy)phenyl)-1-(4-fluorophenyl)-6-methyl-2-oxo-1,2-dihydropyridine-3-carboxamide, reference compound]
Cell death rate (Relative to Comp. Ex. 1) ([1]; 1 μM): x 0.54
Cell death rate (Relative to Comp. Ex. 1) ([1]; 5 μM): x 0.33
Cell death rate (Relative to Comp. Ex. 1) ([2]; 1 μM): x 0.83
Cell death rate (Relative to Comp. Ex. 1) ([2]; 5 μM): x 0.52
IC50 (KM12C cells): 117 nM
IC50 (HT29 cells): 10800 nM

IC50 (RON kinase): 0.51 nM
Compound: CCOc1ccn(-c2ccccc2)c(=O)c1C(=O)Nc1ccc(Oc2ccnc3cc(-c4ccc(CNCCOC)cn4)sc23)c(F)c1.Cl [Example 1, 4-ethoxy-N-(3-fluoro-4-{[2-(5-{[(2-methoxyethyl)amino]methyl}pyridin-2-yl)thieno[3,2-b]pyridin-7-yl]oxy}phenyl)-2-oxo-1-phenyl-1,2-dihydropyridine-3-carboxamide hydrochloride]
Cell death rate (Relative to Comp. Ex. 1) ([1]; 1 μM): x 3.37
Cell death rate (Relative to Comp. Ex. 1) ([1]; 5 μM): x 2.47
Cell death rate (Relative to Comp. Ex. 1) ([2]; 1 μM): x 4.06
Cell death rate (Relative to Comp. Ex. 1) ([2]; 5 μM): x 2.41
IC50 (KM12C cells): 45 nM
IC50 (HT29 cells): 1100 nM

IC50 (RON kinase): 0.45 nM
Compound: CCOc1ccn(-c2cccc(F)c2)c(=O)c1C(=O)Nc1ccc(Oc2ccnc3cc(-c4ccc(CNCCOC)cn4)sc23)c(F)c1.Cl [Example 14, 4-ethoxy-N-(3-fluoro-4-{[2-(5-{[(2-methoxyethyl)amino]methyl}pyridin-2-yl)thieno[3,2-b]pyridin-7-yl]oxy}phenyl)-1-(3-fluorophenyl)-2-oxo-1,2-dihydropyridine-3-carboxamide Hydrochloride]
Cell death rate (Relative to Comp. Ex. 1) ([1]; 1 μM): x 1.58
Cell death rate (Relative to Comp. Ex. 1) ([1]; 5 μM): x 1.43
Cell death rate (Relative to Comp. Ex. 1) ([2]; 1 μM): x 1.59
Cell death rate (Relative to Comp. Ex. 1) ([2]; 5 μM): x 3.81
IC50 (KM12C cells): 63 nM
IC50 (HT29 cells): 668 nM

IC50 (RON kinase): 2.47 nM
Compound: COCCNCc1ccc(-c2cc3nccc(Oc4ccc(NC(=O)c5ccnn(-c6ccc(F)cc6)c5=O)cc4F)c3s2)nc1.Cl [Example 20, N-(3-fluoro-4-[{2-(5-[{(2-methoxyethyl)amino}methyl]pyridin-2-yl)thieno[3,2-b]pyridin-7-yl}oxy]phenyl)-2-(4-fluorophenyl)-3-oxo-2,3-dihydropyridazine-4-carboxamide Hydrochloride]
Cell death rate (Relative to Comp. Ex. 1) ([1]; 1 μM): x 1.07
Cell death rate (Relative to Comp. Ex. 1) ([1]; 5 μM): x 1.11
Cell death rate (Relative to Comp. Ex. 1) ([2]; 1 μM): x 0.75
Cell death rate (Relative to Comp. Ex. 1) ([2]; 5 μM): x 1.13
IC50 (KM12C cells): 10 nM
IC50 (HT29 cells): > 10000 nM

IC50 (RON kinase): 0.56 nM
Compound: COCCNCc1ccc(-c2cc3nccc(Oc4ccc(NC(=O)c5ccc(C)n(-c6ccccc6)c5=O)cc4F)c3s2)nc1.Cl [Example 21, N-(3-fluoro-4-{[2-(5-{[(2-methoxyethyl)amino]methyl}pyridin-2-yl)thieno[3,2-b]pyridin-7-yl]oxy}phenyl)-6-methyl-2-oxo-1-phenyl-1,2-dihydropyridine-3-carboxamide Hydrochloride]
Cell death rate (Relative to Comp. Ex. 1) ([1]; 1 μM): x 0.93
Cell death rate (Relative to Comp. Ex. 1) ([1]; 5 μM): x 4.06
Cell death rate (Relative to Comp. Ex. 1) ([2]; 1 μM): x 1.30
Cell death rate (Relative to Comp. Ex. 1) ([2]; 5 μM): x 4.10
IC50 (KM12C cells): 1500 nM
IC50 (HT29 cells): 1300 nM

IC50 (RON kinase): 0.44 nM
Compound: COCCNCc1ccc(-c2cc3nccc(Oc4ccc(NC(=O)c5ccc(C)n(-c6ccc(F)cc6)c5=O)cc4F)c3s2)nc1.Cl [Example 22, N-(3-fluoro-4-{[2-(5-{[(2-methoxyethyl)amino]methyl}pyridin-2-yl)thieno[3,2-b]pyridin-7-yl]oxy}phenyl)-1-(4-fluorophenyl)-6-methyl-2-oxo-1,2-dihydropyridine-3-carboxamide Hydrochloride]
Cell death rate (Relative to Comp. Ex. 1) ([1]; 1 μM): x 1.48
Cell death rate (Relative to Comp. Ex. 1) ([1]; 5 μM): x 1.61
Cell death rate (Relative to Comp. Ex. 1) ([2]; 1 μM): x 1.07
Cell death rate (Relative to Comp. Ex. 1) ([2]; 5 μM): x 1.71
IC50 (KM12C cells): 1 nM
IC50 (HT29 cells): 1180 nM

— US11447500B2, “Thienopyridine derivatives and pharmaceutical composition comprising same” (WELLMARKER BIO CO., LTD., priority 2018, dated 2022)
